Each compound was assayed against T1, CETP (Homo sapiens, UniProt P11597) (assay: Inhibitory activity against CETP in human plasma (Roar CETP activity kit, fluorescence)). Settings: plasma from healthy men diluted 1:10 in assay buffer, 37° C., 3 hrs, fluorescence 465/535 nm; read-out: IC50, Inhibition of CETP Activity in Human Plasma.
T1 construct: from tissue; host or cells: human plasma from healthy men
T1 sequence (P11597 18-493): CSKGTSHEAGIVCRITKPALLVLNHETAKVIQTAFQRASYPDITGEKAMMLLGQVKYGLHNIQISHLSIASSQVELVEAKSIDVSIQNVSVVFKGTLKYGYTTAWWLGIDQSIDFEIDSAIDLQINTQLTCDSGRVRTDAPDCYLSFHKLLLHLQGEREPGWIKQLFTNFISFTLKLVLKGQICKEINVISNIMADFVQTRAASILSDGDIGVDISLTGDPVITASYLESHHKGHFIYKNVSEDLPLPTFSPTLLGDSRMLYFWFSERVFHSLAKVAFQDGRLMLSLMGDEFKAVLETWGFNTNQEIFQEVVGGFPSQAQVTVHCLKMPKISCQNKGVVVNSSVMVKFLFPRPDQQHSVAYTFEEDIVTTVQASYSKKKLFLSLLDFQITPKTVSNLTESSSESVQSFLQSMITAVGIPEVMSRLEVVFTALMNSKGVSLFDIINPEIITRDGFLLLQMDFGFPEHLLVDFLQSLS
Format: biochemical
Method: A CETP activity kit (#RB-CETP) was purchased from Roar […], Inc. A donor and an acceptor (each, 4 ul), a 10× assay buffer (177 ul), and each of dilutions of test compounds in dimethylsulfoxide (DMSO, Sigma-Aldrich) (0.01 nM˜10000 nM) were added to each well of black round-bottom 96-well plates (Corning #3792). Plasma samples from healthy men were diluted in the assay buffer (1:10=plasma:assay buffer), and added to each well. The plates were sealed with a sealing film (Sigma-Aldrich, #Z369659), and incubated in a 37° C. incubator microplate shaker (#SLST-3, Seolin Bio) for 3 hrs. After removal of the sealing film, fluorescence was read on Spectra Max Gemini EM (Molecular devices) with an excitation wavelength of 465 nm and an emission wavelength of 535 nm. Measurements were calculated according to the following formula. Calculated value=(Fluorescence Intensity with both compound and plasma−Fluorescence Intensity with compound but without plasma)/(Fluorescence Intensity with plasma but without compound−Fluorescence Intensity with neither compound nor plasma)
From the calculated value, a sigmoidal curve (y=start+(end-start)x^n/k^n+x^n) was drawn using Origin Software (OriginLab Corporation, ver. 8.0724) to obtain IC50 values.

Row | SMILES | IC50 [µM]
1 | Cc1noc(C)c1-c1cnc(N(C)C2CCCCC2)c(CN2C(=O)O[C@H](c3cc(C(F)(F)F)cc(C(F)(F)F)c3)[C@@H]2C)c1 [Example 57, (4S,5R)-5-[3,5-bis(trifluoromethyl)phenyl]-4-methyl-3-({[2-(methyl)(cyclohexyl-4-yl)amino]-5-(3,5-dimethylisoxazol-4-yl)pyridin-3-yl}methyl)-oxazolidin-2-one] | 0.0167
2 | CCN(c1ncc(-c2ccnn2C)cc1CN1C(=O)O[C@H](c2cc(C(F)(F)F)cc(C(F)(F)F)c2)[C@@H]1C)C1CCCCC1 [Example 59, (4S,5R)-5-[3,5-bis(trifluoromethyl)phenyl]-4-methyl-3-({[2-(ethyl)(cyclohexyl)amino]-5-(1-methyl-1H-pyrazol-5-yl)pyridin-3-yl}methyl)-oxazolidin-2-one] | 0.0057
3 | CCN(c1ncc(-c2cc(C(F)(F)F)nn2C)cc1CN1C(=O)O[C@H](c2cc(C(F)(F)F)cc(C(F)(F)F)c2)[C@@H]1C)C1CCCCC1 [Example 60, (4S,5R)-5-[3,5-bis(trifluoromethyl)phenyl]-4-methyl-3-({[2-(ethyl)(cyclohexyl-4-yl)amino]-5-(1-methyl-1H-3-(trifluoromethyl)-pyrazol-5-yl)pyridin-3-yl}methyl)-oxazolidin-2-one] | 0.0347
4 | CCN(c1ncc(-c2cnn(C)c2)cc1CN1C(=O)O[C@H](c2cc(C(F)(F)F)cc(C(F)(F)F)c2)[C@@H]1C)C1CCCCC1 [Example 62, (4S,5R)-5-[3,5-bis(trifluoromethyl)phenyl]-4-methyl-3-({[2-(ethyl)(cyclohexyl)amino]-5-(1-methyl-1H-pyrazol-4-yl)pyridin-3-yl}methyl)-oxazolidin-2-one] | 0.151
5 | CCN(c1ncc(-c2cc(C)cs2)cc1CN1C(=O)O[C@H](c2cc(C(F)(F)F)cc(C(F)(F)F)c2)[C@@H]1C)C1CCCCC1 [Example 63, (4S,5R)-5-[3,5-bis(trifluoromethyl)phenyl]-4-methyl-3-({[2-(ethyl)(cyclohexyl)amino]-5-(3-methyl-thiophen-5-yl)pyridin-3-yl}methyl)-oxazolidin-2-one] | 0.0189
6 | CCN(c1ncc(-c2c(C)nn(C)c2C)cc1CN1C(=O)O[C@H](c2cc(C(F)(F)F)cc(C(F)(F)F)c2)[C@@H]1C)C1CCCCC1 [Example 64, (4S,5R)-5-[3,5-bis(trifluoromethyl)phenyl]-3-({[2-(ethyl)(cyclohexyl)amino]-5-(1,3,5-trimethyl-1H-pyrazol-4-yl}pyridin-3-yl}methyl)-oxazolidin-2-one] | 0.0293
7 | CCN(c1ncc(-c2c(C)n[nH]c2C)cc1CN1C(=O)O[C@H](c2cc(C(F)(F)F)cc(C(F)(F)F)c2)[C@@H]1C)C1CCCCC1 [Example 65, (4S,5R)-5-[3,5-bis(trifluoromethyl)phenyl]-4-methyl-3-({[2-(ethyl)(cyclohexyl-4-yl)amino]-5-(3,5-dimethyl-1H-pyrazol-4-yl)pyridin-3-yl}methyl)-oxazolidin-2-one] | 0.224
8 | CCN(c1ncc(-c2nnnn2C)cc1CN1C(=O)O[C@H](c2cc(C(F)(F)F)cc(C(F)(F)F)c2)[C@@H]1C)C1CCCCC1 [Example 66, (4S,5R)-5-[3,5-bis(trifluoromethyl)phenyl]-4-methyl-3-({[2-(ethyl)(cyclohexyl)amino]-5-(1-methyl-1H-tetrazol-5-yl)pyridin-3-yl}methyl)-oxazolidin-2-one] | 0.0463
9 | CCN(c1ncc(-c2cn[nH]c2)cc1CN1C(=O)O[C@H](c2cc(C(F)(F)F)cc(C(F)(F)F)c2)[C@@H]1C)C1CCCCC1 [Example 68, (4S,5R)-5-[3,5-bis(trifluoromethyl)phenyl]-4-methyl-3-({[2-(ethyl)(cyclohexyl)amino]-5-(1H-pyrazol-4-yl)pyridin-3-yl}methyl)-oxazolidin-2-one] | 0.334
10 | CCN(c1ncc(-c2ccc(C#N)s2)cc1CN1C(=O)O[C@@H](c2cc(C(F)(F)F)cc(C(F)(F)F)c2)[C@@H]1C)C1CCCCC1 [Example 71, 5-{5-({(4S,5S)-5-[3,5-bis(trifluoromethyl)phenyl]-4-methyl-2-oxo-oxazolidin-3-yl}methyl)-6-[(cyclohexyl)(ethyl)amino]pyridin-3-yl}-thiophene-2-carbonitrile] | 0.0067
11 | CCN(c1ncc(-c2c[nH]nc2C(F)(F)F)cc1CN1C(=O)O[C@H](c2cc(C(F)(F)F)cc(C(F)(F)F)c2)[C@@H]1C)C1CCCCC1 [Example 72, (4S,5R)-5-[3,5-bis(trifluoromethyl)phenyl]-4-methyl-3-({[2-(ethyl)(cyclohexyl)amino]-5-(3-(trifluoromethyl)-1H-pyrazol-4-yl)pyridin-3-yl}methyl)-oxazolidin-2-one] | 0.169
12 | CCOC(=O)c1c(C)noc1-c1cnc(N(CC)C2CCCCC2)c(CN2C(=O)O[C@H](c3cc(C(F)(F)F)cc(C(F)(F)F)c3)[C@@H]2C)c1 [Example 74] | 0.0632
13 | CCN(c1ncc(-c2ccc(C)o2)cc1CN1C(=O)O[C@H](c2cc(C(F)(F)F)cc(C(F)(F)F)c2)[C@@H]1C)C1CCCCC1 [Example 75, (4S,5R)-5-[3,5-bis(trifluoromethyl)phenyl]-4-methyl-3-({[2-(ethyl)(cyclohexyl)amino]-5-(2-methyl-furan-5-yl)pyridin-3-yl}methyl)-oxazolidin-2-one] | 0.0311
14 | CCN(c1ncc(-c2cccn2C(=O)OC(C)(C)C)cc1CN1C(=O)O[C@@H](c2cc(C(F)(F)F)cc(C(F)(F)F)c2)[C@@H]1C)C1CCCCC1 [Example 76, t-butyl 2-{5-({(4S,5S)-5-[3,5-bis(trifluoromethyl)phenyl]-4-methyl-2-oxo-oxazolidin-3-yl}methyl)-6-[(cyclohexyl)(ethyl)amino]pyridin-3-yl}-1H-pyrrole-1-carboxylate] | 0.0874
15 | CCN(c1ncc(-c2sccc2C)cc1CN1C(=O)O[C@H](c2cc(C(F)(F)F)cc(C(F)(F)F)c2)[C@@H]1C)C1CCCCC1 [Example 78, (4S,5R)-5-[3,5-bis(trifluoromethyl)phenyl]-4-methyl-3-({[2-(ethyl)(cyclohexyl)amino]-5-(3-methyl-thiophen-2-yl)pyridin-3-yl}methyl)-oxazolidin-2-one] | 0.0177
16 | CCN(c1ncc(-c2ccc(C)s2)cc1CN1C(=O)O[C@H](c2cc(C(F)(F)F)cc(C(F)(F)F)c2)[C@@H]1C)C1CCCCC1 [Example 79, (4S,5R)-5-[3,5-bis(trifluoromethyl)phenyl]-4-methyl-3-({[2-(ethyl)(cyclohexyl)amino]-5-(2-methyl-thiophen-5-yl)pyridin-3-yl}methyl)-oxazolidin-2-one] | 0.0243
17 | CCN(c1ncc(-c2cccs2)cc1CN1C(=O)O[C@H](c2cc(C(F)(F)F)cc(C(F)(F)F)c2)[C@@H]1C)C1CCCCC1 [Example 80, (4S,5R)-5-[3,5-bis(trifluoromethyl)phenyl]-4-methyl-3-({[2-(ethyl)(cyclohexyl)amino]-5-(thiophen-2-yl)pyridin-3-yl}methyl)-oxazolidin-2-one] | 0.022
18 | CCN(c1ncc(-c2cscn2)cc1CN1C(=O)O[C@H](c2cc(C(F)(F)F)cc(C(F)(F)F)c2)[C@@H]1C)C1CCCCC1 [Example 81, (4S,5R)-5-[3,5-bis(trifluoromethyl)phenyl]-4-methyl-3-({[2-(ethyl)(cyclohexyl)amino]-5-(thiazol-4-yl)pyridin-3-yl}methyl)-oxazolidin-2-one] | 0.0265
19 | CCN(c1ncc(-c2ccsc2C#N)cc1CN1C(=O)O[C@@H](c2cc(C(F)(F)F)cc(C(F)(F)F)c2)[C@@H]1C)C1CCCCC1 [Example 82, 3-{5-({(4S,5S)-5-[3,5-bis(trifluoromethyl)phenyl]-4-methyl-2-oxo-oxazolidin-3-yl}methyl)-6-[(cyclohexyl)(ethyl)amino]pyridin-3-yl}-thiophene-2-carbonitrile] | 0.246
20 | CCN(c1ncc(-c2c(N)noc2C)cc1CN1C(=O)O[C@H](c2cc(C(F)(F)F)cc(C(F)(F)F)c2)[C@@H]1C)C1CCCCC1 [Example 85, (4S,5R)-5-[3,5-bis(trifluoromethyl)phenyl]-4-methyl-3-({[2-(ethyl)(cyclohexyl)amino]-5-(3-amino-5-methyl-isoxazol-4-yl)pyridin-3-yl}methyl)-oxazolidin-2-one] | 0.0319
21 | CCN(c1ncc(-c2cscc2C)cc1CN1C(=O)O[C@H](c2cc(C(F)(F)F)cc(C(F)(F)F)c2)[C@@H]1C)C1CCCCC1 [Example 86, (4S,5R)-5-[3,5-bis(trifluoromethyl)phenyl]-4-methyl-3-({[2-(ethyl)(cyclohexyl)amino]-5-(3-methyl-thiophen-4-yl)pyridin-3-yl}methyl)-oxazolidin-2-one] | 0.0304

From patent US9533977B2, “Oxazolidinone derivative as CETP inhibitor, its preparation method, and pharmaceutical composition comprising the same” (DONG-A ST CO., LTD., priority 2013, dated 2017)
